Experimental data reported in patent US20250064941A1, “SIGLEC LIGANDS, CONJUGATES, AND METHODS OF USE THEREOF” (Osprey Biopharmaceuticals, Inc., priority 2023, published 2025).

Columns and labels:
[1] = target: T1, mouse Siglec-2-Fc-Avi (CD22) (Mus musculus, UniProt P35329); assay: SPR binding affinity to mouse CD22; settings: steady-state analysis
T1 construct: made in house
T1 sequence (P35329 22-708 limits assumed): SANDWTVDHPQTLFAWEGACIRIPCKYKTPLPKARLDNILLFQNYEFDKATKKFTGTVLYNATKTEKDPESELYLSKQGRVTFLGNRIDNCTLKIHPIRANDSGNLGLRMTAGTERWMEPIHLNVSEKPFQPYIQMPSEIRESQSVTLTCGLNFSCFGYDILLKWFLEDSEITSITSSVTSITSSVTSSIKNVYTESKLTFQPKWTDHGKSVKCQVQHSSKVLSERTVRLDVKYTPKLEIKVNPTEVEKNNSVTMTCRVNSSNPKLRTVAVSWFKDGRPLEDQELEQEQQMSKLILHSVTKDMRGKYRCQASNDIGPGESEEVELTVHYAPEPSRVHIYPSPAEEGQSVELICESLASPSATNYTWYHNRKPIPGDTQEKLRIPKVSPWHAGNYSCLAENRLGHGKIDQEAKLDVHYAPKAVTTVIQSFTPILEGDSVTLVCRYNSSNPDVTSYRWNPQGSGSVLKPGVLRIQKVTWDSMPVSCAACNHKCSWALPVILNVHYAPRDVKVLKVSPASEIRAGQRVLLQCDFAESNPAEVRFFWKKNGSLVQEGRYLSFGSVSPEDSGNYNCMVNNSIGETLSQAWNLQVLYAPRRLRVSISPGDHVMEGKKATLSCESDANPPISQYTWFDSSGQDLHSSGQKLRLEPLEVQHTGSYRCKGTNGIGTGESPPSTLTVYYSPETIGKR
Outline: (§1)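 Biotinylated CD22 desialylated with SialoExo (4 h, 37° C) before capture on streptavidin chip. Running buffer 10 mM HEPES, 150 mM NaCl, 0.05% Tween-20, pH 7.5, 1% DMSO, with DMSO solvent correction; 120 s dissociation. Compound affinities from steady-state analysis.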

[2] = target: T2, human Siglec-2/CD22 protein (Homo sapiens, UniProt P20273); assay: SPR binding affinity to human CD22; settings: steady-state analysis
T2 construct: purchased Acro Biosystems SI2-H82E3
T2 sequence (P20273 20-847): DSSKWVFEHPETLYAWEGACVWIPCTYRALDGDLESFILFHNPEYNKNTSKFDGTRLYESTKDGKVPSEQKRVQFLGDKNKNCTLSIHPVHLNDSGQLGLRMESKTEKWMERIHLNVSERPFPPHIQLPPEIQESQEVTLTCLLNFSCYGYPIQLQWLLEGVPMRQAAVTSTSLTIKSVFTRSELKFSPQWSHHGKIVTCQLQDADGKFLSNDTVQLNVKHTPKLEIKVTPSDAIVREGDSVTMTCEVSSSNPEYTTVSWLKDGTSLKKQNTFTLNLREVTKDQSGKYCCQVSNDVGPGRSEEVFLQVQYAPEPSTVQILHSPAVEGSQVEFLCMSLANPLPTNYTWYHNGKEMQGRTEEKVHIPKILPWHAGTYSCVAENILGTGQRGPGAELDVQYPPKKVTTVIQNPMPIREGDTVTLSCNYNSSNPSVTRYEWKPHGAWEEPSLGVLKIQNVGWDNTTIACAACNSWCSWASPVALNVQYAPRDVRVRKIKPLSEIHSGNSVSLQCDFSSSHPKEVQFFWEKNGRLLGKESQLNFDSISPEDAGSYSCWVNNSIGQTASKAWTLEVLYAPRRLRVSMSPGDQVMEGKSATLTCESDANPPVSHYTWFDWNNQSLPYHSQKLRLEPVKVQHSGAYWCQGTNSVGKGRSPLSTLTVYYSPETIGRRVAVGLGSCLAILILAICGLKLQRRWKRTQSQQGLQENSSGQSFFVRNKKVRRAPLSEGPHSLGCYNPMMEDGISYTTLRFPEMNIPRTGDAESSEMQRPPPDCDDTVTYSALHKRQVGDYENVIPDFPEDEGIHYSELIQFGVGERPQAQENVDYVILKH
Outline: as §1

cynomolgus Siglec-2/CD22 = cynomolgus Siglec-2/CD22 (Macaca fascicularis, UniProt A0A2K5WCZ6); assay: biochemical; assay type: binding; settings: SPR, steady-state analysis; read-out: Affinity cyno CD22
Outline: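 SPR with desialylated (SialoExo, 4 h, 37° C.) cynomolgus CD22 amine-coupled to a CM5 chip. Running buffer 10 mM HEPES, 150 mM NaCl, 0.05% Tween-20, pH 7.5, 1% DMSO, with solvent correction; 120 s dissociation. Affinities from steady-state analysis.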

Sequence of cynomolgus Siglec-2/CD22 (A0A2K5WCZ6 entry or part of it): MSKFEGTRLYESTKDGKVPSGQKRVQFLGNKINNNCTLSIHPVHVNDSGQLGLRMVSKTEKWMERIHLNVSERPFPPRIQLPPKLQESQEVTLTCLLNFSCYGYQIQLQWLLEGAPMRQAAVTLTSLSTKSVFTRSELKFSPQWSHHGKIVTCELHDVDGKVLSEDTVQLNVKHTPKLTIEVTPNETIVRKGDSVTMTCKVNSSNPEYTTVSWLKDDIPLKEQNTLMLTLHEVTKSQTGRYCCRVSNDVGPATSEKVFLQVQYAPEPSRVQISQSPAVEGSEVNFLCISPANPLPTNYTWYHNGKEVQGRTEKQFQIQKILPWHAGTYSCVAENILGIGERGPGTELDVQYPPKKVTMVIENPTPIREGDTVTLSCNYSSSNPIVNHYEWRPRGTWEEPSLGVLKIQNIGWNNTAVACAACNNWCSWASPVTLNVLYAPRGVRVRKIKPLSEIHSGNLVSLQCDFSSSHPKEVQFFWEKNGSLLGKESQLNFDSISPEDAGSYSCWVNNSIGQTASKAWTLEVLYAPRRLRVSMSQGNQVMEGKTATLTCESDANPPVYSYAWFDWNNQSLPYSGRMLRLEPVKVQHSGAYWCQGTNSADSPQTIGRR

Row | Kd [1] [nM] | Kd [2] [nM] | Kd (cynomolgus Siglec-2/CD22) [nM] | Compound
1 | < 1000 | < 1000 | < 1000 | C#CCNc1c(NCCCCCCO[C@]2(C(=O)O)C[C@H](O)[C@@H](NC(=O)CO)[C@H]([C@H](O)[C@H](O)CNC(=O)Cc3ccc(C(F)F)cc3)O2)c(=O)c1=O [Compound 220, (2R,4S,5R,6R)-6-((1R,2R)-3-(2-(4-(difluoromethyl)phenyl)acetamido)-1,2-dihydroxypropyl)-2-((6-((3,4-dioxo-2-(prop-2-yn-1-ylamino)cyclobut-1-en-1-yl)amino)hexyl)oxy)-4-hydroxy-5-(2-hydroxyacetamido)tetrahydro-2H-pyran-2-carboxylic acid]
2 | 1000 to 10000 | < 1000 | < 1000 | C#CCOCCOCCO[C@]1(C(=O)O)C[C@H](O)[C@@H](NC(=O)CO)[C@H]([C@H](O)[C@H](O)CNC(=O)Cc2cc(O)cc(Cl)c2)O1 [Compound 129, (2R,4S,5R,6R)-6-((1R,2R)-3-(2-(3-chloro-5-hydroxyphenyl)acetamido)-1,2-dihydroxypropyl)-4-hydroxy-5-(2-hydroxyacetamido)-2-(2-(2-(prop-2-yn-1-yloxy)ethoxy)ethoxy)tetrahydro-2H-pyran-2-carboxylic acid]
3 | < 1000 | < 1000 | 1000 to 10000 | C#CCOc1ccc(CO[C@]2(C(=O)O)C[C@H](O)[C@@H](NC(=O)CO)[C@H]([C@H](O)[C@H](O)CNC(=O)Cc3ccc(-c4ccc(O)cc4)cc3OC)O2)cc1 [Compound 51, (2R,4S,5R,6R)-6-((1R,2R)-1,2-dihydroxy-3-(2-(4′-hydroxy-3-methoxy-[1,1′-biphenyl]-4-yl)acetamido)propyl)-4-hydroxy-5-(2-hydroxyacetamido)-2-((4-(prop-2-yn-1-yloxy)benzyl)oxy)tetrahydro-2H-pyran-2-carboxylic acid]
4 | < 1000 | < 1000 | < 1000 | C#CCOCCCCCCS[C@]1(C(=O)O)C[C@H](O)[C@@H](NC(=O)CO)[C@H]([C@H](O)[C@H](O)CNC(=O)Cc2ccc(Cl)cc2)O1 [Compound 186, (2S,4S,5R,6R)-6-((1R,2R)-3-(2-(4-chlorophenyl)acetamido)-1,2-dihydroxypropyl)-4-hydroxy-5-(2-hydroxyacetamido)-2-((6-(prop-2-yn-1-yloxy)hexyl)thio)tetrahydro-2H-pyran-2-carboxylic acid]
5 | < 1000 | < 1000 | < 1000 | C#CCNc1c(NCCCCCCO[C@]2(C(=O)O)C[C@H](O)[C@@H](NC(=O)CO)[C@H]([C@H](O)[C@H](O)CNC(=O)Cc3ccc(-c4ccccc4)cc3)O2)c(=O)c1=O [Compound 221, (2R,4S,5R,6R)-6-((1R,2R)-3-(2-([1,1′-biphenyl]-4-yl)acetamido)-1,2-dihydroxypropyl)-2-((6-((3,4-dioxo-2-(prop-2-yn-1-ylamino)cyclobut-1-en-1-yl)amino)hexyl)oxy)-4-hydroxy-5-(2-hydroxyacetamido)tetrahydro-2H-pyran-2-carboxylic acid]
6 | 1000 to 10000 | < 1000 | < 1000 | C#CCOCCOCCNc1c(NCCCCCCO[C@]2(C(=O)O)C[C@H](O)[C@@H](NC(=O)CO)[C@H]([C@H](O)[C@H](O)CNC(=O)C(F)(F)c3ccccc3)O2)c(=O)c1=O [Compound 275, (2R,4S,5R,6R)-6-((1R,2R)-3-(2,2-difluoro-2-phenylacetamido)-1,2-dihydroxypropyl)-2-((6-((3,4-dioxo-2-((2-(2-(prop-2-yn-1-yloxy)ethoxy)ethyl)amino)cyclobut-1-en-1-yl)amino)hexyl)oxy)-4-hydroxy-5-(2-hydroxyacetamido) tetrahydro-2H-pyran-2-carboxylic acid]
7 | < 1000 | < 1000 | < 1000 | CC(=O)NCCOCCOCCOCCOCCNc1c(NCCCCCCO[C@]2(C(=O)O)C[C@H](O)[C@@H](NC(=O)CO)[C@H]([C@H](O)[C@H](O)CNC(=O)Cc3ccc(C(F)F)cc3)O2)c(=O)c1=O [Cpd. 258, (2R,4S,5R,6R)-6-((1R,2R)-3-(2-(4-(difluoromethyl)phenyl)acetamido)-1,2-dihydroxypropyl)-2-((6-((3,4-dioxo-2-((2-oxo-6,9,12,15-tetraoxa-3-azaheptadecan-17-yl)amino)cyclobut-1-en-1-yl)amino)hexyl)oxy)-4-hydroxy-5-(2-hydroxyacetamido)tetrahydro-2H-pyran-2-carboxylic acid]
8 | < 1000 | < 1000 | < 1000 | C#Cc1ccc(CO[C@]2(C(=O)O)C[C@H](O)[C@@H](NC(=O)CO)[C@H]([C@H](O)[C@H](O)CNC(=O)Cc3cccc(O)c3)O2)cc1 [Compound 142, (2R,4S,5R,6R)-6-((1R,2R)-1,2-dihydroxy-3-(2-(3-hydroxyphenyl)acetamido)propyl)-2-((4-ethynylbenzyl)oxy)-4-hydroxy-5-(2-hydroxyacetamido)tetrahydro-2H-pyran-2-carboxylic acid]
9 | > 10000 | 1000 to 10000 | 1000 to 10000 | C#CCCOc1ccc(CO[C@]2(C(=O)O)C[C@H](O)[C@@H](NC(=O)CO)[C@H]([C@H](O)[C@H](O)CNC(=O)C3(c4ccccc4)CC3)O2)cc1 [Compound 173, (2R,4S,5R,6R)-2-((4-(but-3-yn-1-yloxy)benzyl)oxy)-6-((1R,2R)-1,2-dihydroxy-3-(1-phenylcyclopropane-1-carboxamido)propyl)-4-hydroxy-5-(2-hydroxyacetamido)tetrahydro-2H-pyran-2-carboxylic acid]
10 | 1000 to 10000 | 1000 to 10000 | 1000 to 10000 | C#CCCCCCCc1cn([C@]2(C(=O)O)C[C@H](O)[C@@H](NC(=O)CO)[C@H]([C@H](O)[C@H](O)CNC(=O)Cc3ccc(Cl)cc3)O2)nn1 [Compound 119, (2R,4S,5R,6R)-6-((1R,2R)-3-(2-(4-chlorophenyl)acetamido)-1,2-dihydroxypropyl)-4-hydroxy-5-(2-hydroxyacetamido)-2-(4-(oct-7-yn-1-yl)-1H-1,2,3-triazol-1-yl)tetrahydro-2H-pyran-2-carboxylic acid]
11 | 1000 to 10000 | < 1000 | < 1000 | C#CCOCCOCCNc1c(NCCCCCCO[C@]2(C(=O)O)C[C@H](O)[C@@H](NC(=O)CO)[C@H]([C@H](O)[C@H](O)CNC(=O)c3ccc(C(F)F)cc3)O2)c(=O)c1=O [Compound 231, (2R,4S,5R,6R)-6-((1R,2R)-3-(4-(difluoromethyl)benzamido)-1,2-dihydroxypropyl)-2-((6-((3,4-dioxo-2-((2-(2-(prop-2-yn-1-yloxy)ethoxy)ethyl)amino)cyclobut-1-en-1-yl)amino)hexyl)oxy)-4-hydroxy-5-(2-hydroxyacetamido)tetrahydro-2H-pyran-2-carboxylic acid]
12 | < 1000 | < 1000 | < 1000 | C#CCOc1ccc(CO[C@]2(C(=O)O)C[C@H](O)[C@@H](NC(=O)CO)[C@H]([C@H](O)[C@H](O)CNC(=O)Cc3ccc(-c4ccc(O)cc4)c(Cl)c3)O2)cc1 [Compound 47, (2R,4S,5R,6R)-6-((1R,2R)-3-(2-(2-chloro-4′-hydroxy-[1,1′-biphenyl]-4-yl)acetamido)-1,2-dihydroxypropyl)-4-hydroxy-5-(2-hydroxyacetamido)-2-((4-(prop-2-yn-1-yloxy)benzyl)oxy)tetrahydro-2H-pyran-2-carboxylic acid]
